Earlier results, collected in patent US12599565B2, “Stable benzimidazole formulation” (DEXCEL PHARMA TECHNOLOGIES LTD., priority 2008, dated 2026).

- half life (pH 11): about 300 days
- half-life of degradation (pH values below 4.0): less than 10 minutes
SMILES: COc1ccc2[nH]c([S+]([O-])Cc3ncc(C)c(OC)c3C)nc2c1 (centres unmarked) [Omeprazole, 5-methoxy-2(((4-methoxy-3,5-dimethyl-2-pyridinyl)methyl)sulfinyl)-1H-benzimidazole]
